# ChEMBL document CHEMBL4308841, “Synthesis, in vitro antiproliferative activity, and kinase inhibitory effects of pyrazole-containing diarylureas and diarylamides” (Eur J Med Chem, 2018)
# Experiments:
# A549 = test: Growth inhibition of human A549/ATCC cells assessed as cell growth at 1 uM incubated for 48 hrs by sulforhodamine B assay relative to control; type: functional; details: A549, 48 h, read-out: Activity
# HCC 2998 [1] = test: Growth inhibition of human HCC2998 cells assessed as cell growth at 0.01 uM incubated for 48 hrs by sulforhodamine B assay relative to control; type: functional; details: HCC 2998, 48 h, read-out: Activity
# Hs-578T [2] = test: Growth inhibition of human Hs578T cells assessed as cell growth at 100 uM incubated for 48 hrs by sulforhodamine B assay relative to control; type: functional; details: read-out: Activity
# HT-29 [3] = test: Growth inhibition of human HT-29 cells assessed as cell growth at 1 uM incubated for 48 hrs by sulforhodamine B assay relative to control; type: functional; details: HT-29, 48 h, read-out: Activity
# SK-MEL-28 = test: Growth inhibition of human SK-MEL-28 cells assessed as cell growth at 1 uM incubated for 48 hrs by sulforhodamine B assay relative to control; type: functional; details: SK-MEL-28, 48 h, read-out: Activity
# MDA-MB-435 = test: Growth inhibition of human MDA-MB-435 cells incubated for 48 hrs by sulforhodamine B assay; type: functional, cell-based; details: MDA-MB-435, 48 h
# UACC-62 = test: Growth inhibition of human UACC62 cells incubated for 48 hrs by sulforhodamine B assay; type: functional, cell-based; details: UACC-62, 48 h
# NCI-H322M [4] = test: Growth inhibition of human NCI-H322M cells assessed as cell growth at 0.1 uM incubated for 48 hrs by sulforhodamine B assay relative to control; type: functional; details: read-out: Activity
# LOX IMVI [5] = test: Growth inhibition of human LOXIMVI cells assessed as cell growth at 0.01 uM incubated for 48 hrs by sulforhodamine B assay relative to control; type: functional; details: read-out: Activity
# T47D = test: Growth inhibition of human T47D cells assessed as cell growth at 0.1 uM incubated for 48 hrs by sulforhodamine B assay relative to control; type: functional; details: read-out: Activity
# UACC-257 = test: Growth inhibition of human UACC257 cells assessed as cell growth at 1 uM incubated for 48 hrs by sulforhodamine B assay relative to control; type: functional; details: UACC-257, 48 h, read-out: Activity
# SNB-75 = test: Growth inhibition of human SNB75 cells assessed as cell growth at 0.1 uM incubated for 48 hrs by sulforhodamine B assay relative to control; type: functional; details: SNB-75, 48 h, read-out: Activity
# HCC 2998 [6] = test: Growth inhibition of human HCC2998 cells incubated for 48 hrs by sulforhodamine B assay; type: functional, cell-based; details: HCC 2998, 48 h
# NCI-H322M [7] = test: Growth inhibition of human NCI-H322M cells assessed as cell growth at 100 uM incubated for 48 hrs by sulforhodamine B assay relative to control; type: functional; details: read-out: Activity
# SN12C = test: Growth inhibition of human SN12C cells assessed as cell growth at 0.1 uM incubated for 48 hrs by sulforhodamine B assay relative to control; type: functional; details: read-out: Activity
# RXF 393 = test: Growth inhibition of human RXF393 cells assessed as cell growth at 100 uM incubated for 48 hrs by sulforhodamine B assay relative to control; type: functional; details: RXF 393, 48 h, read-out: Activity
# SK-MEL-2 = test: Growth inhibition of human SK-MEL-2 cells assessed as cell growth at 0.01 uM incubated for 48 hrs by sulforhodamine B assay relative to control; type: functional; details: SK-MEL-2, 48 h, read-out: Activity
# MDA-MB-468 = test: Growth inhibition of human MDA-MB-468 cells assessed as cell growth at 100 uM incubated for 48 hrs by sulforhodamine B assay relative to control; type: functional; details: MDA-MB-468, 48 h, read-out: Activity
# NCI-H322M [8] = test: Growth inhibition of human NCI-H322M cells assessed as cell growth at 1 uM incubated for 48 hrs by sulforhodamine B assay relative to control; type: functional; details: read-out: Activity
# HOP-62 = test: Growth inhibition of human HOP62 cells assessed as cell growth at 0.01 uM incubated for 48 hrs by sulforhodamine B assay relative to control; type: functional; details: HOP-62, 48 h, read-out: Activity
# OVCAR-5 = test: Growth inhibition of human OVCAR5 cells assessed as cell growth at 1 uM incubated for 48 hrs by sulforhodamine B assay relative to control; type: functional; details: OVCAR-5, 48 h, read-out: Activity
# SNB-19 = test: Growth inhibition of human SNB19 cells incubated for 48 hrs by sulforhodamine B assay; type: functional, cell-based; details: SNB-19, 48 h
# NCI/ADR-RES = test: Growth inhibition of human NCI/ADR-RES cells assessed as cell growth at 1 uM incubated for 48 hrs by sulforhodamine B assay relative to control; type: functional; details: read-out: Activity
# HT-29 [9] = test: Growth inhibition of human HT-29 cells assessed as cell growth at 100 uM incubated for 48 hrs by sulforhodamine B assay relative to control; type: functional; details: HT-29, 48 h, read-out: Activity
# OVCAR-4 = test: Growth inhibition of human OVCAR4 cells assessed as cell growth at 0.01 uM incubated for 48 hrs by sulforhodamine B assay relative to control; type: functional; details: OVCAR-4, 48 h, read-out: Activity
# Hs-578T [10] = test: Growth inhibition of human Hs578T cells incubated for 48 hrs by sulforhodamine B assay; type: functional, cell-based
# COLO 205 = test: Growth inhibition of human COLO205 cells assessed as cell growth at 0.01 uM incubated for 48 hrs by sulforhodamine B assay relative to control; type: functional; details: COLO 205, 48 h, read-out: Activity
# LOX IMVI [11] = test: Growth inhibition of human LOXIMVI cells assessed as cell growth at 100 uM incubated for 48 hrs by sulforhodamine B assay relative to control; type: functional; details: read-out: Activity
# A498 = test: Growth inhibition of human A498 cells incubated for 48 hrs by sulforhodamine B assay; type: functional, cell-based; details: A498, 48 h
# UO-31 = test: Growth inhibition of human UO31 cells assessed as cell growth at 100 uM incubated for 48 hrs by sulforhodamine B assay relative to control; type: functional; details: UO-31, 48 h, read-out: Activity
# [12] = read-out: LC50 (the source's name)
# [13] = read-out: pLC50 (the source's name) (converted)
compound,measurement,setting,value
O=C(Nc1cccc(-n2cc(-c3ccncc3)c(-c3cc(O)cc(Cl)c3)n2)c1)Nc1ccc(Cl)c(Cl)c1,growth at 1 µM,A549,75%
same,growth at 0.01 µM,HCC 2998 [1],104%
same,growth at 100 µM,Hs-578T [2],9%
same,growth at 1 µM,HT-29 [3],96%
same,growth at 1 µM,SK-MEL-28,90%
same,GI50,MDA-MB-435; read-out: GI50,1.5 µM
same,TGI,MDA-MB-435; read-out: TGI,35.8 µM
same,GI50,MDA-MB-435; read-out: pGI50 (converted),1.58 µM
same,TGI,MDA-MB-435; read-out: pTGI (converted),3.55 µM
same,IC50,UACC-62,1.69 µM
same,GI50,UACC-62; read-out: GI50,1.59 µM
same,CC50,UACC-62; [12],5.38 µM
same,TGI,UACC-62; read-out: TGI,37.6 µM
same,GI50,UACC-62; read-out: pGI50 (converted),1.7 µM
same,CC50,UACC-62; [13],8.32 µM
same,TGI,UACC-62; read-out: pTGI (converted),3.72 µM
same,growth at 0.1 µM,NCI-H322M [4],88%
same,growth at 0.01 µM,LOX IMVI [5],106%
same,growth at 0.1 µM,T47D,88%
same,growth at 1 µM,UACC-257,92%
same,growth at 0.1 µM,SNB-75,52%
same,GI50,HCC 2998 [6]; read-out: GI50,2.93 µM
same,CC50,HCC 2998 [6]; [12],7.51 µM
same,TGI,HCC 2998 [6]; read-out: TGI,89.9 µM
same,GI50,HCC 2998 [6]; read-out: pGI50 (converted),2.95 µM
same,CC50,HCC 2998 [6]; [13],77.6 µM
same,TGI,HCC 2998 [6]; read-out: pTGI (converted),8.91 µM
same,growth at 100 µM,NCI-H322M [7],-24%
same,growth at 0.1 µM,SN12C,95%
same,growth at 100 µM,RXF 393,-52%
same,growth at 0.01 µM,SK-MEL-2,59%
same,growth at 100 µM,MDA-MB-468,-17%
same,growth at 1 µM,NCI-H322M [8],59%
same,growth at 0.01 µM,HOP-62,105%
same,growth at 1 µM,OVCAR-5,56%
same,GI50,SNB-19; read-out: GI50,3.38 µM
same,CC50,SNB-19; [12],> 100 µM
same,TGI,SNB-19; read-out: TGI,19 µM
same,GI50,SNB-19; read-out: pGI50 (converted),3.16 µM
same,CC50,SNB-19; [13],> 100 µM
same,TGI,SNB-19; read-out: pTGI (converted),19.1 µM
same,growth at 1 µM,NCI/ADR-RES,90%
same,growth at 100 µM,HT-29 [9],-70%
same,growth at 0.01 µM,OVCAR-4,108%
same,GI50,Hs-578T [10]; read-out: GI50,3.23 µM
same,CC50,Hs-578T [10]; [12],> 100 µM
same,TGI,Hs-578T [10]; read-out: TGI,> 100 µM
same,GI50,Hs-578T [10]; read-out: pGI50 (converted),3.24 µM
same,CC50,Hs-578T [10]; [13],> 100 µM
same,TGI,Hs-578T [10]; read-out: pTGI (converted),> 100 µM
same,growth at 0.01 µM,COLO 205,106%
same,growth at 100 µM,LOX IMVI [11],-38%
same,GI50,A498; read-out: GI50,2.09 µM
same,CC50,A498; [12],4.13 µM
same,TGI,A498; read-out: TGI,90.6 µM
same,GI50,A498; read-out: pGI50 (converted),2.09 µM
same,CC50,A498; [13],41.7 µM
same,TGI,A498; read-out: pTGI (converted),9.12 µM
same,growth at 100 µM,UO-31,-27%
O=C(Nc1cccc(-n2cc(-c3ccncc3)c(-c3cc(O)cc(Cl)c3)n2)c1)c1ccc(N2CCOCC2)c(C(F)(F)F)c1,growth at 1 µM,A549,52%
same,growth at 0.01 µM,HCC 2998 [1],102%
same,growth at 100 µM,Hs-578T [2],30%
same,growth at 1 µM,HT-29 [3],94%
same,growth at 1 µM,SK-MEL-28,44%
same,GI50,MDA-MB-435; read-out: GI50,2 µM
same,LC50,MDA-MB-435; read-out: LC50,> 100 µM
same,TGI,MDA-MB-435; read-out: TGI,> 100 µM
same,GI50,MDA-MB-435; read-out: pGI50 (converted),2.04 µM
same,LC50,MDA-MB-435; read-out: pLC50 (converted),> 100 µM
same,TGI,MDA-MB-435; read-out: pTGI (converted),> 100 µM
same,IC50,UACC-62,1.72 µM
same,GI50,UACC-62; read-out: GI50,1.72 µM
same,CC50,UACC-62; [12],> 100 µM
same,TGI,UACC-62; read-out: TGI,93.8 µM
same,GI50,UACC-62; read-out: pGI50 (converted),1.74 µM
same,CC50,UACC-62; [13],> 100 µM
same,TGI,UACC-62; read-out: pTGI (converted),9.33 µM
same,growth at 0.1 µM,NCI-H322M [4],97%
same,growth at 0.01 µM,LOX IMVI [5],100%
same,growth at 0.1 µM,T47D,98%
same,growth at 1 µM,UACC-257,54%
same,growth at 0.1 µM,SNB-75,83%
same,GI50,HCC 2998 [6]; read-out: GI50,1.52 µM
same,CC50,HCC 2998 [6]; [12],> 100 µM
same,TGI,HCC 2998 [6]; read-out: TGI,79.5 µM
same,GI50,HCC 2998 [6]; read-out: pGI50 (converted),1.82 µM
same,CC50,HCC 2998 [6]; [13],> 100 µM
same,TGI,HCC 2998 [6]; read-out: pTGI (converted),7.94 µM
same,growth at 100 µM,NCI-H322M [7],21%
same,growth at 0.1 µM,SN12C,98%
same,growth at 100 µM,RXF 393,-39%
same,growth at 0.01 µM,SK-MEL-2,54%
same,growth at 100 µM,MDA-MB-468,-15%
same,growth at 1 µM,NCI-H322M [8],57%
same,growth at 0.01 µM,HOP-62,100%
same,growth at 1 µM,OVCAR-5,111%
same,GI50,SNB-19; read-out: GI50,3.33 µM
same,CC50,SNB-19; [12],> 100 µM
same,TGI,SNB-19; read-out: TGI,33.8 µM
same,GI50,SNB-19; read-out: pGI50 (converted),3.31 µM
same,CC50,SNB-19; [13],> 100 µM
same,TGI,SNB-19; read-out: pTGI (converted),33.9 µM
same,growth at 1 µM,NCI/ADR-RES,79%
same,growth at 100 µM,HT-29 [9],-41%
same,growth at 0.01 µM,OVCAR-4,100%
same,GI50,Hs-578T [10]; read-out: GI50,2.94 µM
same,CC50,Hs-578T [10]; [12],> 100 µM
same,TGI,Hs-578T [10]; read-out: TGI,> 100 µM
same,GI50,Hs-578T [10]; read-out: pGI50 (converted),2.95 µM
same,CC50,Hs-578T [10]; [13],> 100 µM
same,TGI,Hs-578T [10]; read-out: pTGI (converted),> 100 µM
same,growth at 0.01 µM,COLO 205,106%
same,growth at 100 µM,LOX IMVI [11],-45%
same,GI50,A498; read-out: GI50,1.94 µM
same,CC50,A498; [12],> 100 µM
same,TGI,A498; read-out: TGI,73.2 µM
same,GI50,A498; read-out: pGI50 (converted),19.5 µM
same,CC50,A498; [13],> 100 µM
same,TGI,A498; read-out: pTGI (converted),72.4 µM
same,growth at 100 µM,UO-31,-33%
